Laboratory results from publication PMC12072186, “A Novel Small Molecule Enhances Stable Dopamine Delivery to the Brain in Models of Parkinson’s Disease” (International Journal of Molecular Sciences, 2025).
Like-named read-outs stand apart in the source and are kept apart here.

Key:
[1] = tested on: MPTP-treated C57BL/6 mice; test: Rotarod test in MPTP-treated mice; format: in vivo, mouse; details: MPTP 25 mg/kg i.p. day 1–5; treatment day 1–13; vs MPTP vehicle control
Experimental: (§1) MPTP was injected to male C57BL/6 mice for 5 consecutive days (Figure 4A) to destroy DA neurons, and then the mice were treated with Pegasus alone or Pegasus + Benserazide compared to L-dopa alone or L-Dopa + Benserazide.
(§2) From day 1 to day 5, MPTP was administered to all the groups except Naive at a dose of 25 mg/kg, i.p., QD. Treatment with Pegasus alone (50 mg/kg, i.p., BID), a combination of Pegasus 50 mg/kg, BID + Benserazide 10 mg/kg, QD, or a combination of L-Dopa 10 mg/kg, QD + Benserazide 10 mg/kg, QD or standalone L-Dopa 10 mg/kg, QD, started on day 1 and continued until day 13. On day 13, after the first dose of Pegasus, 4 animals/time point from each group were sacrificed at 0.5, 1, 3, 6, and 12 h, and the blood and brains were collected.
The mice were placed on an accelerating Rotarod (Columbus Instruments, Columbus, OH, USA) equipped with individual timers for each mouse. […] The mice were trained for 3 consecutive days before the final measurement.

[2] = tested on: MPTP-treated C57BL/6 mice; test: Grip strength test in MPTP-treated mice; format: in vivo, mouse; details: MPTP 25 mg/kg i.p. day 1–5; treatment day 1–13; vs MPTP vehicle control
Experimental: as §1, §2
The maximal muscle/grip strength of forelimbs was measured using a strength meter.

[3] = cited from earlier work
[4] = In vivo metabolism, metabolite profiling in rat brain and plasma (LC-MS/MS); details: male, Sprague Dawley, intraperitoneal, 50 mg/kg; relative abundance brain vs plasma, rat
Experimental: In vivo metabolism: We performed a metabolism study (Figure 2) in male Sprague Dawley rats (6–8 weeks old) after a single i.p. injection of 50 mg/kg Pegasus. Plasma and brain samples were serially collected and assessed for the presence of possible phase-I and phase-II metabolites. […] The relative abundance of Pegasus and its metabolites in the brain and plasma was determined at the ionization parameters of the parent.
Metabolite profiling was performed in rat brain and plasma samples to detect phase-I and phase-II metabolites in male Sprague Dawley rats (6–8 weeks old, n = 6) injected (i.p.) with 50 mg/kg Pegasus. The formulation vehicle of Pegasus was 5% DMSO + 35% polyethylene glycol (PEG) 400 + 60% normal saline, and this formulation was used to measure the plasma and brain concentrations of Pegasus and all other metabolites. All samples obtained after Pegasus dosing in rats by the i.p. route of administration were used for metabolite profiling and compared to normal saline. Blood (n = 16 samples) was collected via retro-orbital plexus puncture 0.25, 1, 4, 6, 8, and 24 h pre-dose, and brain sampling was 1, 4, and 24 h post-dose (n = 6 per group). The brain samples were cleaned and perfused, then washed with PBS. The brains (approximately 1.5 g) were transferred to a 50 mL centrifuge tube and 36 mL of ice-cold PBS was added. The mixture was homogenized for about 1–2 min to obtain a uniform suspension. The precipitate was allowed to settle for 30 min at 4 °C, and 15 mL of the middle layer was collected. The plasma and brain samples were processed by the protein precipitation method. In total, 175 μL of acetonitrile was added to 25 μL of plasma samples. The samples were mixed, followed by centrifugation at 4000 rpm for 20 min. The supernatant from the samples was subjected to LC-MS/MS analysis.
The samples were analyzed by liquid chromatography tandem mass spectrometry (HPLC: LC series, Shimadzu, Chiyoda-ku, Tokyo, Japan; mass spectrometer: API4000 Triple Quad mass spectrometer, Applied Biosystems, Carlsbad, CA, USA). The samples (n = 6) were processed using protein precipitation and 1 mM stock solution, prepared in DMSO, spiked into acetonitrile to a final concentration of 4 µM, and processed using liquid chromatography tandem mass spectrometry, employing a linear gradient method using MH+/MH−(Q1) and product ion (MS/MS) scans. The evaluation of the Pegasus metabolites included demethylation, de-hydroxylation, amide cleavage, oxidation, de-hydrogenation, glucuronidation, sulfation, glutathione conjugation, and several other possibilities. The relative abundance of Pegasus and its metabolites in the brain and plasma was determined at the ionization parameters of the parent.

[5] = tested on: MPTP models of PD; design: method as in PMID 11724929; details: cited from earlier work

N[C@@H](Cc1ccc(O)c(O)c1)C(=O)O [L-Dopa]
Latency to fall (Rotarod) [1]: significantly increased latency to fall
Forelimb grip strength [2]: significantly reversed back to normal levels
Half-life T1/2 ([3]; in combination with DDCI): 60 to 90 min
Levodopa brain entry ([3]; in combination with dopa-carboxylase enzyme inhibitor (DDCI)): up to 10%
Half-life T1/2 ([3]; levodopa administered alone): 46.2 to 64.8 min
Share of oral dose that reaches the brain ([3]; levodopa administered alone): 1%
Share reaching the brain ([3]; with DDCI and selective COMT inhibitors): up to 40%

NC(=O)CCC(=O)NCCc1cc(O)c(O)c(SCC(N)C(=O)O)c1 (stereo not drawn) [M11]
Kp [4]: 1.31

CN(C)c1ccc(O)c2c1C[C@H]1C[C@H]3[C@H](N(C)C)C(O)=C(C(N)=O)C(=O)[C@@]3(O)C(O)=C1C2=O [Minocycline]
Striatal cell loss [5]: prevents striatal cell loss
